From PMC9481026 (PLoS ONE, 2022)
In brackets after ≈: the same amount, converted by molar mass. Where two headings read alike, the source gives them in different places.

What was measured:
RVFV MP-12 = assay: microbe, parasite or virus in culture; type: cell-based, Rift Valley fever virus; conditions: for EC50: read-out: Estimated EC50
in vitro = conditions: African green monkey
RVFV strain MP-12 [1] = assay: microbe, parasite or virus in culture; type: cell-based, Rift Valley fever virus
C. neoformans = assay: microbe, parasite or virus in culture; type: cell-based
Human RNase H1 = biological target: T1, Human RNase H1 (Homo sapiens, UniProt O60930); assay: biochemical; conditions: read-out: Human RNase H1 (IC50)
T1 construct: made in house; host or cells: E. coli
T1 sequence (O60930 1-286): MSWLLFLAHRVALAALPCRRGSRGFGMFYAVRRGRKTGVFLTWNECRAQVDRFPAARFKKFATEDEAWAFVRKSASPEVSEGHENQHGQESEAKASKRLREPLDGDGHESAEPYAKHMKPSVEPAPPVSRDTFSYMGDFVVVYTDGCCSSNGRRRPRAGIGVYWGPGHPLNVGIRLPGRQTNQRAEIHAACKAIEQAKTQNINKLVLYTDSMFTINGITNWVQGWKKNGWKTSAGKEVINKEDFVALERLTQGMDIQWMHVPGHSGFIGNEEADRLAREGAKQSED

Staphylo-coccus spp. = assay: organism not typed; type: cell-based
RVFV strain MP-12 [2] = assay: microbe, parasite or virus in culture; type: cell-based, Rift Valley fever virus; conditions: read-out: A549 EC50
ZIKV = assay: microbe, parasite or virus in culture; type: cell-based, Zika virus; conditions: read-out: ZIKV EC50
LACV = assay: microbe, parasite or virus in culture; type: cell-based, La Crosse virus; conditions: read-out: LACV EC50

| SMILES | EC50 (RVFV strain MP-12 [1]; read-out: RVFV (EC50)) | C. neoformans (MIC80, μM) (C. neoformans) | IC50 (Human RNase H1) | CC50 (Vero cells) | EC50 (RVFV MP-12) | other results |
| --- | --- | --- | --- | --- | --- | --- |
| CCCCCCS(=O)(=O)c1ccc(S(=O)(=O)CCCCCC)c(O)c(=O)c1O [Compound 700] |  |  |  |  |  | Estimated EC50 (RVFV MP-12): inactive; EC50 (RVFV MP-12; Rift Valley fever virus, Vero): > 120 µM; CC50 (in vitro; Estimated CC50): > 120 µM |
| Cc1cc(O)c(=O)c(O)cc1C(=O)c1ccc(-c2ccncc2)cc1 [Compound 260] | 31.6 µM | 50 µM | 277 µM | > 120 µM |  | CC50 (HepDES19): 45 µM |
| Cc1cc(O)c(=O)c(O)cc1C(=O)c1ccccc1 [Compound 111] | 19 µM | 36 µM | 48 µM | > 120 µM |  |  |
| Cc1cc(O)c(=O)c(O)cc1C(=O)Nc1cccc(OCc2ccccc2)c1 [Compound 836] |  |  |  | > 120 µM | 13 µM |  |
| Cc1ccc(/C=C/C(=O)c2ccccc(=O)c2O)cc1 [Compound 340] |  | 49 µM | > 500 µM | 70 µM | 3 µM | CC50 (HepDES19): 18.7 µM; EC50 (RVFV strain MP-12 [1]; read-out: EC50): 27.3 µM |
| Cc1cc(O)c(=O)c(O)cc1-c1cccc(-c2cccc3ccccc23)c1 [Compound 234] |  |  |  | > 120 µM | 19 µM |  |
| O=c1c(O)ccc(-c2ccco2)cc1O [Compound 265] | 15.4 µM | 11 µM | 57 µM | > 120 µM |  | Staphylo-coccus spp. (MIC80, μM) (Staphylo-coccus spp.): 30 µM |
| Cc1cc(O)c(=O)c(O)cc1C(=O)N[C@@H](CCC(=O)OC(C)(C)C)C(=O)OC(C)(C)C [Compound 867] |  |  |  |  |  | EC50 (RVFV strain MP-12 [2]; Rift Valley fever virus, A549, 24 h): 33 µM; EC50 (ZIKV; Zika virus, Vero C1008, 48 h): > 120 µM; EC50 (LACV; La Crosse virus, Vero C1008, 24 h): > 120 µM; EC50 (RVFV strain MP-12 [1]; Rift Valley fever virus, Vero, 24 h): 8.7 µM; EC50 (RVFV strain MP-12 [1]; Rift Valley fever virus, Vero, read-out: Vero EC50): 8.7 µM; MIC80 (C. neoformans; Cryptococcus neoformans, read-out: C. neoformans (MIC80, μM)): 9 µM (≈ 3.94 µg/mL); EC50 (RVFV MP-12; Rift Valley fever virus, Vero): 6.66 µM; CC50 (in vitro; CC50): > 120 µM; CC50 (in vitro; Vero CC50): > 120 µM |
| Cc1cc(O)c(=O)c(O)cc1C(=O)C1CCCCC1 [Compound 120] | 15.6 µM | 12 µM | 81 µM | > 120 µM |  |  |
| CC(=Nc1ccccc1Cl)c1c(C)cc(=O)n(O)c1O [Compound 668] |  |  | 165 µM | > 120 µM | 11 µM | EC50 (RVFV strain MP-12 [2]): 35.7 µM; EC50 (ZIKV): > 120 µM; EC50 (LACV): > 120 µM; CC50 (HepDES19): 76.8 µM; EC50 (RVFV strain MP-12 [1]; read-out: EC50): 19.2 µM; EC50 (RVFV strain MP-12 [1]; read-out: Vero EC50): 19.2 µM; CC50 (A549 cells): 82 µM |
| NC(=O)c1c(N)sc2c1CCCCC2 [Compound 22] |  |  |  |  | > 120 µM |  |
| Cc1cc(O)c(=O)c(O)cc1C(=O)N1CCN(c2ccc([N+](=O)[O-])c3nonc23)CC1 [Compound 920] |  |  |  | > 120 µM | 19 µM |  |
| Cc1cc(O)c(=O)c(O)cc1-c1ccccc1 [Compound 113] | 10.3 µM | 24 µM | 174 µM | > 120 µM |  |  |
| Cc1cc(O)c(=O)c(O)cc1C(=O)c1ccc(-c2ccccc2)cc1 [Compound 118] | 11 µM | 15 µM | > 500 µM | > 120 µM |  |  |
| CSc1cccc(O)c(=O)c1O [Compound 385] | 25.2 µM | 24 µM | 176 µM | > 120 µM |  | CC50 (HepDES19): 100 µM |
| CC(=Nc1ccccc1F)c1c(C)cc(=O)n(O)c1O [Compound 516] |  |  |  | > 120 µM | 19 µM |  |
| Cc1ccc(CNC(=O)c2cc(O)c(=O)c(O)cc2C)c(C)c1 [Compound 809] |  |  |  | 64 µM | 17 µM |  |
| O=C(O)CC(=O)CC(=O)c1cccs1 [Compound 129] |  |  |  |  | > 120 µM |  |
| CC(C)c1cccc(=O)c(O)c1 [Compound 47, β-thujaplicin, reference compound] |  |  |  |  |  | EC50 (RVFV MP-12; Rift Valley fever virus, Vero): > 120 µM |
| O=c1c(O)c(SCc2ccccc2)ccc(SCc2ccccc2)c1O [Compound 703] |  | 7.0 µM | 61 µM |  | 9 µM | Staphylo-coccus spp. (MIC80, μM) (Staphylo-coccus spp.): 13 µM; CC50 (HepDES19): 8.2 µM; EC50 (RVFV strain MP-12 [1]; read-out: EC50): 16.1 µM |
| CC(C)c1ccc(O)c(=O)cc1 [Compound 48, γ -thujaplicin, reference compound] |  |  |  |  |  | EC50 (RVFV MP-12; Rift Valley fever virus, Vero): > 120 µM |
| CC1=CC(O)N(O)C(O)=C1C(C)=Nc1ccccc1N (stereo not shown) [Compound 208] | > 120 µM | 30 µM | 194 µM | > 120 µM | 14 µM | CC50 (HepDES19): 14.4 µM |
